We go through 22 molecules from US7741327B2 (Hoffmann-La Roche Inc., priority 2008, dated 2010).

In this test the target is T1, Recombinant human liver GK1 (GST-GK) (Homo sapiens, UniProt P35557).
T1 construct: made in house; host or cells: E. coli
T1 sequence (P35557 1-466 isoform P35557-2): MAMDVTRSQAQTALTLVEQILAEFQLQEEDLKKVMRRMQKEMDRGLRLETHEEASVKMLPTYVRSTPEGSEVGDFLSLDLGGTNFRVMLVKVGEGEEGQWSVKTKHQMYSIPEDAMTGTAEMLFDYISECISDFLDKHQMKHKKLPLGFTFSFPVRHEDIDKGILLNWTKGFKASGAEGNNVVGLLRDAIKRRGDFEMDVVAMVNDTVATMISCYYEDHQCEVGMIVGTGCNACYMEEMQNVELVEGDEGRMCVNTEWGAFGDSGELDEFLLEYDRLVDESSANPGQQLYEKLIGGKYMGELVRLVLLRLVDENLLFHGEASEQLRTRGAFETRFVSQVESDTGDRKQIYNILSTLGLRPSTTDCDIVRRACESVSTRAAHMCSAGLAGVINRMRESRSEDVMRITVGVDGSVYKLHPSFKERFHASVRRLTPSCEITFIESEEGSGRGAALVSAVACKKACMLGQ
In words: In vitro glucokinase activity (G6PDH-coupled NADH assay). In kind it is biochemical. To be noted: 30° C., 5 mM D-glucose, 10% DMSO. The method, boiled down:
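GST-tagged human liver GK1 from E. coli, assayed at 30° C in 25 mM Hepes pH 7.1 with 5 mM D-glucose, 1 mM ATP, 1.8 mM NAD and G6PDH coupling, 10% DMSO final; reaction started with enzyme after 10 min preincubation. NADH formation followed at OD340; SC1.5 is activator concentration giving 50% increase over DMSO control rate.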
For the molecule `CC(C)(O)Cn1ccc(NC(=O)[C@H](CC2CCCCC2)N2CC(Oc3cccc(F)c3F)=CC2=O)n1` [Example 200, (S)-3-cyclohexyl-2-[4-(2,3-difluoro-phenoxy)-2-oxo-2,5-dihydro-pyrrol-1-yl]-N-[1-(2-hydroxy-2-methyl-propyl)-1H-pyrazol-3-yl]-propionamide], the “SC1.5 (concentration of activator that produced a 50% increase in the activity of GK)” value came out at 0.011 µM.

`CC(C)(O)Cn1ccc(NC(=O)[C@H](CC2CCCCC2)N2CC(Oc3cc(Cl)ccc3Cl)=CC2=O)n1` [Example 201, (S)-3-cyclohexyl-2-[4-(2,5-dichloro-phenoxy)-2-oxo-2,5-dihydro-pyrrol-1-yl]-N-[1-(2-hydroxy-2-methyl-propyl)-1H-pyrazol-3-yl]-propionamide]: the “SC1.5 (concentration of activator that produced a 50% increase in the activity of GK)” value came out at 0.013 µM.

Consider `CC(C)(O)Cn1ccc(NC(=O)[C@H](CC2CCCCC2)N2CC(Oc3ccc(Cl)cc3Cl)=CC2=O)n1` [Example 202, (S)-3-cyclohexyl-2-[4-(2,4-dichloro-phenoxy)-2-oxo-2,5-dihydro-pyrrol-1-yl]-N-[1-(2-hydroxy-2-methyl-propyl)-1H-pyrazol-3-yl]-propionamide], for which the “SC1.5 (concentration of activator that produced a 50% increase in the activity of GK)” value is 0.012 µM.

Consider `CC(C)(O)Cn1ccc(NC(=O)[C@H](CC2CCCCC2)N2CC(Oc3ccccc3OCc3ccccc3)=CC2=O)n1` [Example 203, (S)-2-[4-(2-benzyloxy-phenoxy)-2-oxo-2,5-dihydro-pyrrol-1-yl]-3-cyclohexyl-N-[1-(2-hydroxy-2-methyl-propyl)-1H-pyrazol-3-yl]-propionamide], for which the “SC1.5 (concentration of activator that produced a 50% increase in the activity of GK)” value is 0.253 µM.

Turning to `Cc1cccc(OC2=CC(=O)N([C@@H](CC3CCCCC3)C(=O)Nc3ccn(CC(C)(C)O)n3)C2)c1C` [Example 204, (S)-3-cyclohexyl-2-[4-(2,3-dimethyl-phenoxy)-2-oxo-2,5-dihydro-pyrrol-1-yl]-N-[1-(2-hydroxy-2-methyl-propyl)-1H-pyrazol-3-yl]-propionamide], the “SC1.5 (concentration of activator that produced a 50% increase in the activity of GK)” value was 0.012 µM.

With `CC(C)(O)Cn1ccc(NC(=O)[C@H](CC2CCCCC2)N2CC(Oc3cccc(Br)c3)=CC2=O)n1` [Example 205, (S)-2-[4-(3-bromo-phenoxy)-2-oxo-2,5-dihydro-pyrrol-1-yl]-3-cyclohexyl-N-[1-(2-hydroxy-2-methyl-propyl)-1H-pyrazol-3-yl]-propionamide], the “SC1.5 (concentration of activator that produced a 50% increase in the activity of GK)” value turned out to be 0.021 µM.

On to `CC(C)(O)Cn1ccc(NC(=O)[C@H](CC2CCCCC2)N2CC(Oc3cccc(F)c3)=CC2=O)n1` [Example 206, (S)-3-cyclohexyl-2-[4-(3-fluoro-phenoxy)-2-oxo-2,5-dihydro-pyrrol-1-yl]-N-[1-(2-hydroxy-2-methyl-propyl)-1H-pyrazol-3-yl]-propionamide], for which the “SC1.5 (concentration of activator that produced a 50% increase in the activity of GK)” value was determined as 0.034 µM.

On to `CC(C)(O)Cn1ccc(NC(=O)[C@H](CC2CCCCC2)N2CC(Oc3cccc(Cl)c3)=CC2=O)n1` [Example 207, (S)-2-[4-(3-chloro-phenoxy)-2-oxo-2,5-dihydro-pyrrol-1-yl]-3-cyclohexyl-N-[1-(2-hydroxy-2-methyl-propyl)-1H-pyrazol-3-yl]-propionamide], for which the “SC1.5 (concentration of activator that produced a 50% increase in the activity of GK)” value is 0.018 µM.

As for `COc1cccc(OC2=CC(=O)N([C@@H](CC3CCCCC3)C(=O)Nc3ccn(CC(C)(C)O)n3)C2)c1` [Example 208, (S)-3-cyclohexyl-N-[1-(2-hydroxy-2-methyl-propyl)-1H-pyrazol-3-yl]-2-[4-(3-methoxy-phenoxy)-2-oxo-2,5-dihydro-pyrrol-1-yl]-propionamide], the “SC1.5 (concentration of activator that produced a 50% increase in the activity of GK)” value worked out at 0.012 µM.

Take `CC(C)(O)Cn1ccc(NC(=O)[C@H](CC2CCCCC2)N2CC(Oc3cccc(C(F)(F)F)c3)=CC2=O)n1` [Example 209, (S)-3-cyclohexyl-N-[1-(2-hydroxy-2-methyl-propyl)-1H-pyrazol-3-yl]-2-[2-oxo-4-(3-trifluoromethyl-phenoxy)-2,5-dihydro-pyrrol-1-yl]-propionamide]: the “SC1.5 (concentration of activator that produced a 50% increase in the activity of GK)” value was determined as 0.076 µM.

In the case of `Cc1cccc(OC2=CC(=O)N([C@@H](CC3CCCCC3)C(=O)Nc3ccn(CC(C)(C)O)n3)C2)c1` [Example 210, (S)-3-cyclohexyl-N-[1-(2-hydroxy-2-methyl-propyl)-1H-pyrazol-3-yl]-2-(2-oxo-4-m-tolyloxy-2,5-dihydro-pyrrol-1-yl)-propionamide], the “SC1.5 (concentration of activator that produced a 50% increase in the activity of GK)” value was found to be 0.018 µM.

Regarding `CC(C)(O)Cn1ccc(NC(=O)[C@H](CC2CCCCC2)N2CC(Oc3cccc(OC(F)(F)F)c3)=CC2=O)n1` [Example 211, (S)-3-cyclohexyl-N-[1-(2-hydroxy-2-methyl-propyl)-1H-pyrazol-3-yl]-2-[2-oxo-4-(3-trifluoromethoxy-phenoxy)-2,5-dihydro-pyrrol-1-yl]-propionamide], the “SC1.5 (concentration of activator that produced a 50% increase in the activity of GK)” value is 0.055 µM.

With `Cc1ccc(OC2=CC(=O)N([C@@H](CC3CCCCC3)C(=O)Nc3ccn(CC(C)(C)O)n3)C2)cn1` [Example 212, (S)-3-cyclohexyl-N-[1-(2-hydroxy-2-methyl-propyl)-1H-pyrazol-3-yl]-2-[4-(6-methyl-pyridin-3-yloxy)-2-oxo-2,5-dihydro-pyrrol-1-yl]-propionamide], the “SC1.5 (concentration of activator that produced a 50% increase in the activity of GK)” value turned out to be 0.054 µM.

As to `CC(C)(O)Cn1ccc(NC(=O)[C@H](CC2CCCCC2)N2CC(Oc3ccccc3)=CC2=O)n1` [Example 213, (S)-3-cyclohexyl-N-[1-(2-hydroxy-2-methyl-propyl)-1H-pyrazol-3-yl]-2-(2-oxo-4-phenoxy-2,5-dihydro-pyrrol-1-yl)-propionamide], the “SC1.5 (concentration of activator that produced a 50% increase in the activity of GK)” value is 0.028 µM.

Consider `CC(C)(O)Cn1ccc(NC(=O)C(C[C@H]2C[C@H](C)C2)N2CC(Oc3ccccc3Cl)=CC2=O)n1` (stereo partly drawn) [Example 214, 2-[4-(2-Chloro-phenoxy)-2-oxo-2,5-dihydro-pyrrol-1-yl]-N-[1-(2-hydroxy-2-methyl-propyl)-1H-pyrazol-3-yl]-3-(trans-3-methyl-cyclobutyl)-propionamide], for which the “SC1.5 (concentration of activator that produced a 50% increase in the activity of GK)” value was 0.043 µM.

Regarding `CC(C)(O)Cn1ccc(NC(=O)C(C[C@H]2C[C@@H](C)C2)N2CC(Oc3ccccc3Cl)=CC2=O)n1` (stereo partly drawn) [Example 217, 2-[4-(2-Chloro-phenoxy)-2-oxo-2,5-dihydro-pyrrol-1-yl]-N-[1-(2-hydroxy-2-methyl-propyl)-1H-pyrazol-3-yl]-3-(cis-3-methyl-cyclobutyl)-propionamide], the “SC1.5 (concentration of activator that produced a 50% increase in the activity of GK)” value worked out at 0.137 µM.

For `CC(F)(F)C[C@@H](C(=O)Nc1ccn(C[C@@H](O)CO)n1)N1CC(Oc2ccccc2Cl)=CC1=O` [Example 218, (S)-2-[4-(2-Chloro-phenoxy)-2-oxo-2,5-dihydro-pyrrol-1-yl]-4,4-difluoro-pentanoic acid [1-((R)-2,3-dihydroxy-propyl)-1H-pyrazol-3-yl]-amide], the “SC1.5 (concentration of activator that produced a 50% increase in the activity of GK)” value was determined as 4.538 µM.

Consider `O=C(Nc1ccn(C[C@@H](O)CO)n1)C(CC(C(F)(F)F)C(F)(F)F)N1CC(Oc2ccccc2Cl)=CC1=O` (stereo partly drawn) [Example 219, 2-[4-(2-Chloro-phenoxy)-2-oxo-2,5-dihydro-pyrrol-1-yl]-5,5,5-trifluoro-4-trifluoromethyl-pentanoic acid [1-((R)-2,3-dihydroxy-propyl)-1H-pyrazol-3-yl]-amide], for which the “SC1.5 (concentration of activator that produced a 50% increase in the activity of GK)” value worked out at 4.287 µM.

Regarding `O=C(Nc1ccn(C[C@@H](O)CO)n1)C(CCC(F)(F)F)N1CC(Oc2ccccc2Cl)=CC1=O` (stereo partly drawn) [Example 220, 2-[4-(2-Chloro-phenoxy)-2-oxo-2,5-dihydro-pyrrol-1-yl]-5,5,5-trifluoro-pentanoic acid [1-((R)-2,3-dihydroxy-propyl)-1H-pyrazol-3-yl]-amide], the “SC1.5 (concentration of activator that produced a 50% increase in the activity of GK)” value was found to be 1.8 µM.

In the case of `O=C(Nc1ccn(C[C@@H](O)CO)n1)C(CC(F)F)N1CC(Oc2ccccc2Cl)=CC1=O` (stereo partly drawn) [Example 221, 2-[4-(2-Chloro-phenoxy)-2-oxo-2,5-dihydro-pyrrol-1-yl]-N-[1-((R)-2,3-dihydroxy-propyl)-1H-pyrazol-3-yl]-4,4-difluoro-butyramide], the “SC1.5 (concentration of activator that produced a 50% increase in the activity of GK)” value was found to be 17.303 µM.

In the case of `O=C(Nc1ccn(C[C@@H](O)CO)n1)[C@H](CCO)N1CC(Oc2ccccc2Cl)=CC1=O` [Example 222, (S)-2-[4-(2-Chloro-phenoxy)-2-oxo-2,5-dihydro-pyrrol-1-yl]-N-[1-((R)-2,3-dihydroxy-propyl)-1H-pyrazol-3-yl]-4-hydroxy-butyramide], the “SC1.5 (concentration of activator that produced a 50% increase in the activity of GK)” value came out at 15.278 µM.

Turning to `CSCC[C@@H](C(=O)Nc1ccn(C[C@@H](O)CO)n1)N1CC(Oc2ccccc2Cl)=CC1=O` [Example 223, (S)-2-[4-(2-Chloro-phenoxy)-2-oxo-2,5-dihydro-pyrrol-1-yl]-N-[1-((R)-2,3-dihydroxy-propyl)-1H-pyrazol-3-yl]-4-methylsulfanyl-butyramide], the “SC1.5 (concentration of activator that produced a 50% increase in the activity of GK)” value amounted to 0.303 µM.
